Measurements published in PubChem BioAssay (NCI).
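Each compound was tested at five concentrations against cells in 96-well plates for 48 hours. TGI: total growth inhibition.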

Key:
Assay in all cases: NCI anticancer screen, dose series, 48 h
K-562 leukemia = tested on: K-562 leukemia
UACC-257 melanoma = tested on: UACC-257 melanoma
MALME-3M melanoma = tested on: MALME-3M melanoma
MOLT-4 leukemia = tested on: MOLT-4 leukemia
BT-549 breast = tested on: BT-549 breast
OVCAR-8 ovarian = tested on: OVCAR-8 ovarian
PC-3 prostate = tested on: PC-3 prostate
HOP-62 NSCLC = tested on: HOP-62 NSCLC
T-47D breast = tested on: T-47D breast
HS 578T breast = tested on: HS 578T breast
SNB-75 CNS = tested on: SNB-75 CNS
HCT-15 colon = tested on: HCT-15 colon
SF-539 CNS = tested on: SF-539 CNS
COLO 205 colon = tested on: COLO 205 colon
ACHN renal = tested on: ACHN renal
HCT-116 colon = tested on: HCT-116 colon
SF-268 CNS = tested on: SF-268 CNS
SK-OV-3 ovarian = tested on: SK-OV-3 ovarian
NCI-H226 lung = tested on: NCI-H226 lung
SN12C renal = tested on: SN12C renal
NCI/ADR-RES ovarian = tested on: NCI/ADR-RES ovarian
HCC-2998 colon = tested on: HCC-2998 colon
M14 melanoma = tested on: M14 melanoma
MDA-N = tested on: MDA-N
SK-MEL-28 melanoma = tested on: SK-MEL-28 melanoma
NCI-H522 lung = tested on: NCI-H522 lung
NCI-H460 lung = tested on: NCI-H460 lung
U251 CNS = tested on: U251 CNS
MDA-MB-231 breast = tested on: MDA-MB-231 breast
786-0 renal = tested on: 786-0 renal
IGROV1 ovarian = tested on: IGROV1 ovarian
A549 NSCLC = tested on: A549 NSCLC
CCRF-CEM leukemia = tested on: CCRF-CEM leukemia
NCI-H23 lung = tested on: NCI-H23 lung
UACC-62 melanoma = tested on: UACC-62 melanoma
SF-295 CNS = tested on: SF-295 CNS
SW-620 colon = tested on: SW-620 colon
MCF7 breast = tested on: MCF7 breast
TK-10 renal = tested on: TK-10 renal
OVCAR-4 ovarian = tested on: OVCAR-4 ovarian
KM12 colon = tested on: KM12 colon
CAKI-1 renal = tested on: CAKI-1 renal
RPMI-8226 leukemia = tested on: RPMI-8226 leukemia
OVCAR-5 ovarian = tested on: OVCAR-5 ovarian
OVCAR-3 ovarian = tested on: OVCAR-3 ovarian
SK-MEL-2 melanoma = tested on: SK-MEL-2 melanoma
RXF 393 renal = tested on: RXF 393 renal
EKVX NSCLC = tested on: EKVX NSCLC
LOX IMVI melanoma = tested on: LOX IMVI melanoma
MDA-MB-435 = tested on: MDA-MB-435
SNB-19 CNS = tested on: SNB-19 CNS
HT29 colon = tested on: HT29 colon
SK-MEL-5 melanoma = tested on: SK-MEL-5 melanoma
HL-60(TB) leukemia = tested on: HL-60(TB) leukemia
UO-31 renal = tested on: UO-31 renal
DU-145 prostate = tested on: DU-145 prostate
SR leukemia = tested on: SR leukemia
A498 renal = tested on: A498 renal
HOP-92 NSCLC = tested on: HOP-92 NSCLC

SMILES: O=C1CCCC(=O)N1n1c(Cc2ccc(Cl)cc2)n[nH]c1=O
- TGI (K-562 leukemia): > 100 µM
- TGI (UACC-257 melanoma): > 100 µM
- TGI (MALME-3M melanoma): > 100 µM
- TGI (MOLT-4 leukemia): > 100 µM
- TGI (BT-549 breast): > 100 µM
- TGI (OVCAR-8 ovarian): > 100 µM
- TGI (PC-3 prostate): > 100 µM
- TGI (HOP-62 NSCLC): > 100 µM
- TGI (T-47D breast): > 100 µM
- TGI (HS 578T breast): > 100 µM
- TGI (SNB-75 CNS): > 100 µM
- TGI (HCT-15 colon): > 100 µM
- TGI (SF-539 CNS): > 100 µM
- TGI (COLO 205 colon): > 100 µM
- TGI (ACHN renal): > 100 µM
- TGI (HCT-116 colon): > 100 µM
- TGI (SF-268 CNS): > 100 µM
- TGI (SK-OV-3 ovarian): > 100 µM
- TGI (NCI-H226 lung): > 100 µM
- TGI (SN12C renal): > 100 µM
- TGI (NCI/ADR-RES ovarian): > 100 µM
- TGI (HCC-2998 colon): > 100 µM
- TGI (M14 melanoma): > 100 µM
- TGI (MDA-N): > 100 µM
- TGI (SK-MEL-28 melanoma): > 100 µM
- TGI (NCI-H522 lung): > 100 µM
- TGI (NCI-H460 lung): > 100 µM
- TGI (U251 CNS): > 100 µM
- TGI (MDA-MB-231 breast): > 100 µM
- TGI (786-0 renal): > 100 µM
- TGI (IGROV1 ovarian): > 100 µM
- TGI (A549 NSCLC): > 100 µM
- TGI (CCRF-CEM leukemia): > 100 µM
- TGI (NCI-H23 lung): > 100 µM
- TGI (UACC-62 melanoma): > 100 µM
- TGI (SF-295 CNS): > 100 µM
- TGI (SW-620 colon): > 100 µM
- TGI (MCF7 breast): > 100 µM
- TGI (TK-10 renal): > 100 µM
- TGI (OVCAR-4 ovarian): > 100 µM
- TGI (KM12 colon): > 100 µM
- TGI (CAKI-1 renal): > 100 µM
- TGI (RPMI-8226 leukemia): > 100 µM
- TGI (OVCAR-5 ovarian): > 100 µM
- TGI (OVCAR-3 ovarian): > 100 µM
- TGI (SK-MEL-2 melanoma): > 100 µM
- TGI (RXF 393 renal): > 100 µM
- TGI (EKVX NSCLC): > 100 µM
- TGI (LOX IMVI melanoma): > 100 µM
- TGI (MDA-MB-435): > 100 µM
- TGI (SNB-19 CNS): > 100 µM
- TGI (HT29 colon): > 100 µM
- TGI (SK-MEL-5 melanoma): > 100 µM
- TGI (HL-60(TB) leukemia): > 100 µM
- TGI (UO-31 renal): > 100 µM
- TGI (DU-145 prostate): > 100 µM

SMILES: O=NNc1ccc(Sc2ccc3ccccc3c2)cn1
- TGI (K-562 leukemia): > 100 µM
- TGI (UACC-257 melanoma): > 100 µM
- TGI (MALME-3M melanoma): 35.6 µM
- TGI (MOLT-4 leukemia): > 100 µM
- TGI (BT-549 breast): 77.1 µM
- TGI (OVCAR-8 ovarian): > 100 µM
- TGI (PC-3 prostate): > 100 µM
- TGI (HOP-62 NSCLC): 50.2 µM
- TGI (T-47D breast): 77.9 µM
- TGI (HS 578T breast): > 100 µM
- TGI (SNB-75 CNS): > 100 µM
- TGI (HCT-15 colon): 60 µM
- TGI (SF-539 CNS): > 100 µM
- TGI (COLO 205 colon): > 100 µM
- TGI (ACHN renal): > 100 µM
- TGI (HCT-116 colon): 40.6 µM
- TGI (SF-268 CNS): > 100 µM
- TGI (SK-OV-3 ovarian): > 100 µM
- TGI (NCI-H226 lung): > 100 µM
- TGI (SN12C renal): > 100 µM
- TGI (NCI/ADR-RES ovarian): 89.4 µM
- TGI (HCC-2998 colon): 31.2 µM
- TGI (M14 melanoma): 60.2 µM
- TGI (MDA-N): > 100 µM
- TGI (SK-MEL-28 melanoma): > 100 µM
- TGI (NCI-H522 lung): 54 µM
- TGI (NCI-H460 lung): > 100 µM
- TGI (SR leukemia): > 100 µM
- TGI (U251 CNS): > 100 µM
- TGI (MDA-MB-231 breast): > 100 µM
- TGI (786-0 renal): > 100 µM
- TGI (IGROV1 ovarian): > 100 µM
- TGI (A549 NSCLC): > 100 µM
- TGI (CCRF-CEM leukemia): 59.6 µM
- TGI (NCI-H23 lung): > 100 µM
- TGI (UACC-62 melanoma): > 100 µM
- TGI (SF-295 CNS): > 100 µM
- TGI (SW-620 colon): > 100 µM
- TGI (MCF7 breast): > 100 µM
- TGI (TK-10 renal): > 100 µM
- TGI (OVCAR-4 ovarian): > 100 µM
- TGI (KM12 colon): > 100 µM
- TGI (CAKI-1 renal): > 100 µM
- TGI (OVCAR-5 ovarian): > 100 µM
- TGI (OVCAR-3 ovarian): > 100 µM
- TGI (SK-MEL-2 melanoma): 43.4 µM
- TGI (RXF 393 renal): 4.12 µM
- TGI (A498 renal): > 100 µM
- TGI (EKVX NSCLC): > 100 µM
- TGI (SNB-19 CNS): > 100 µM
- TGI (HT29 colon): > 100 µM
- TGI (SK-MEL-5 melanoma): 39.1 µM
- TGI (HL-60(TB) leukemia): 24.9 µM
- TGI (UO-31 renal): > 100 µM
- TGI (DU-145 prostate): 79.7 µM

SMILES: O=C(O)c1cccc(S(=O)(=O)NN2C(=O)CSC2c2ccccc2Cl)c1 (configuration not stated)
- TGI (K-562 leukemia): > 100 µM
- TGI (UACC-257 melanoma): > 100 µM
- TGI (MALME-3M melanoma): > 100 µM
- TGI (MOLT-4 leukemia): > 100 µM
- TGI (BT-549 breast): > 100 µM
- TGI (OVCAR-8 ovarian): > 100 µM
- TGI (PC-3 prostate): > 100 µM
- TGI (HOP-62 NSCLC): > 100 µM
- TGI (T-47D breast): > 100 µM
- TGI (HS 578T breast): > 100 µM
- TGI (SNB-75 CNS): > 100 µM
- TGI (HCT-15 colon): > 100 µM
- TGI (SF-539 CNS): > 100 µM
- TGI (COLO 205 colon): > 100 µM
- TGI (ACHN renal): > 100 µM
- TGI (HCT-116 colon): > 100 µM
- TGI (SF-268 CNS): > 100 µM
- TGI (SK-OV-3 ovarian): > 100 µM
- TGI (NCI-H226 lung): > 100 µM
- TGI (SN12C renal): > 100 µM
- TGI (HCC-2998 colon): > 100 µM
- TGI (M14 melanoma): > 100 µM
- TGI (MDA-N): > 100 µM
- TGI (SK-MEL-28 melanoma): > 100 µM
- TGI (NCI-H522 lung): > 100 µM
- TGI (NCI-H460 lung): > 100 µM
- TGI (SR leukemia): > 100 µM
- TGI (U251 CNS): > 100 µM
- TGI (MDA-MB-231 breast): > 100 µM
- TGI (786-0 renal): > 100 µM
- TGI (IGROV1 ovarian): > 100 µM
- TGI (HOP-92 NSCLC): > 100 µM
- TGI (A549 NSCLC): > 100 µM
- TGI (CCRF-CEM leukemia): > 100 µM
- TGI (NCI-H23 lung): > 100 µM
- TGI (UACC-62 melanoma): > 100 µM
- TGI (SF-295 CNS): > 100 µM
- TGI (SW-620 colon): > 100 µM
- TGI (MCF7 breast): > 100 µM
- TGI (TK-10 renal): > 100 µM
- TGI (KM12 colon): > 100 µM
- TGI (CAKI-1 renal): > 100 µM
- TGI (RPMI-8226 leukemia): > 100 µM
- TGI (OVCAR-5 ovarian): > 100 µM
- TGI (OVCAR-3 ovarian): > 100 µM
- TGI (SK-MEL-2 melanoma): > 100 µM
- TGI (RXF 393 renal): > 100 µM
- TGI (EKVX NSCLC): > 100 µM
- TGI (LOX IMVI melanoma): > 100 µM
- TGI (MDA-MB-435): > 100 µM
- TGI (SNB-19 CNS): > 100 µM
- TGI (HT29 colon): > 100 µM
- TGI (SK-MEL-5 melanoma): > 100 µM
- TGI (HL-60(TB) leukemia): > 100 µM
- TGI (UO-31 renal): > 100 µM
- TGI (DU-145 prostate): > 100 µM
